Legend:
virus = assay: Antiviral activity: cytopathic effect (CPE) inhibition in virus-inoculated Vero cells; assay type: cell-based; conditions: MIC, virus at 100 times TCID50, cultured 36 hours at 37°C, CPE observed microscopically
Procedure: By partly modifying the testing method reported in Antimicrobial Agents and Chemotherapy, 24(3), 353-361 (1983), antiviral activity was analyzed in the following manner. 200 µℓ of Eagle's minimum essential medium (with 10% fetal calf serum), in which Vero cells (product of Flow General Inc., marketed by Dainippon Pharmaceutical Co., Ltd., available from National Institute of Health) were suspended at the concentration of 3 x 10⁵ cells/mℓ, were cultured in a […] flat bottom plate. Subsequent to dense monolayer culture, the medium was removed and 90 µℓ of Eagle's minimum essential medium (with 3% fetal calf serum) containing a test compound were added. The tissue culture infections dosis 50% (TCID₅₀) had been determined in advance without addition of any drug. The above-prepared culture plate was inoculated with 10 µℓ of a virus solution whose concentration was 100 times higher than TCID₅₀ determined in advance. The cells were cultured for 36 hours at 37°C under 5% CO₂. The cytopathic effect (CPE) was microscopically observed, whereby the minimum virus growth inhibitory concentration (MIC) was determined.

Vero cells = assay: Measurement of cytotoxicity by the MTT method; assay type: cell-based; conditions: cultured 72 hours, ID50 (growth of cells inhibited to 50%)
Procedure: Added to 100 µℓ of Eagle's minimum essential medium were 100 µℓ of Eagle's minimum essential medium (with 10% fetal calf serum), in which Vero cells were suspended at the concentration of 5 x 10⁴ cells/mℓ as well as a test compound. The resultant mixture was cultured for 72 hours in a […] flat bottom plate. The cytotoxicity of the test compound was then measured by the MTT measuring method reported in J. Immunol. Methods, 65, 55-63 (1983). The cytotoxicity is indicated in terms of the concentration (ID₅₀) which inhibited the growth of cells to 50%.

Row | Compound | Minimum virus growth inhibitory concen. (virus) | 50% cell growth inhibitory concentration (ID50) (Vero cells)
1 | CC(O)C1=C[C@@H](n2cnc3c(N)nccc32)[C@H](O)[C@@H]1O (single isomer, unassigned) [6'-c-Methyl-3-deazaneplanocin A, 6'-C-Methyl-3-deazaneplanocin A] | 1.0 µg/mL | 12.4 µg/mL
2 | Nc1ncnc2c1ncn2[C@@H]1C=C(CO)[C@@H](O)[C@H]1O [Neplanocin A] | 0.24 µg/mL | –
3 | Nc1nccc2c1ncn2[C@@H]1C=C(CO)[C@@H](O)[C@H]1O [3-Deazaneplanosin A, 3-deazaneplanocin A] | 0.24 µg/mL | –

From EP0510260A2, “6'-C-alkyl-3-deazaneplanocin A derivative and its preparation process and use” (ASAHI KASEI KOGYO KABUSHIKI KAISHA, priority 1991, dated 1992)
